Measured values from patent US20190364896A1, “SYNERGISTIC WEED CONTROL FROM APPLICATIONS OF PYRIDINE CARBOXYLIC ACID HERBICIDES AND ALS INHIBITORS” (Dow AgroSciences LLC, priority 2014, published 2019).

Key:
[1] = system: wild pansy (Viola tricolor, VIOTR); test: Postemergence herbicidal activity, greenhouse trial (visual injury 0-100%); type: in vivo
Method: (§1) Seeds of the desired test plant species were planted in Sun Gro MetroMix® 306 planting mixture, which typically has a pH of 6.0 to 6.8 and an organic matter content of about 30 percent, in plastic pots with a surface area of 103.2 square centimeters (cm^2). […] The plants were grown for 7-36 days (d) in a greenhouse with an approximate 14-hour (h) photoperiod which was maintained at about 23° C. during the day and 22° C. during the night. Nutrients and water were added on a regular basis and supplemental lighting was provided with overhead metal halide 1000-Watt lamps as necessary. The plants were employed for testing when they reached the second or third true leaf stage.
(§2) Weighed amounts of technical or formulated material (emulsifiable concentrate (EC) or soluble concentrate (SL)) were dissolved in a volume of 97:3 volume per volume (v/v) acetone/dimethyl sulfoxide (DMSO) to stock solutions. […] The concentrated stock solutions were diluted with an aqueous mixture of 1.5% v/v of Agri-dex crop oil concentrate to provide the appropriate application rates. Compound requirements are based upon a 12 milliliter (mL) application volume at a rate of 187 liters per hectare (L/ha). Spray solutions of the experimental compound mixtures were prepared by adding the stock solutions to the appropriate amount of dilution solution to form a 12 mL spray solution in two-way combinations. Formulated compounds were applied to the plant material with an overhead Mandel track sprayer equipped with 8002E nozzles calibrated to deliver 187 L/ha over an application area of 0.503 square meters (m^2) at a spray height of 18 inches (43 centimeters (cm)) above average plant canopy. Control plants were sprayed in the same manner with the solvent blank. Application rates for component (a) are in g ae/ha, and application rates for component (b) are in g ai/ha.
(§3) The treated plants and control plants were placed in a greenhouse as described above and watered by sub-irrigation to prevent wash-off of the test compounds. After 20-22 d, the condition of the test plants as compared with that of the control plants was determined visually and scored on a scale of 0 to 100 percent where 0 corresponds to no injury and 100 corresponds to complete kill. The condition of the test plants was compared with that of the control plants as determined visually and scored on a scale of 0 to 100 percent, where 0 corresponds to no injury and 100 corresponds to complete kill. Colby's equation was used to determine the herbicidal effects expected from the mixtures.
[…] Compound 2 was formulated as an EC and was combined with florasulam or pyroxsulam. The mixtures were applied to winter wheat (TRZAW), common rice (ORYSA), maize (ZEAMX), and the phytotoxicity of the herbicidal compositions was measured. In addition, the efficacy of the herbicidal compositions on blackgrass (Alopecurus myosuroides, ALOMY), pigweed (Amaranthus retrollexus, AMARE), wild oat (Avena fatua, AVEFA), common lambsquarters (Chenopodium album L., CHEAL), thistle (Cirsium arvense CIRAR), nutsedge (Cyperus esculentus, CYPES), barnyardgrass (Echinochloa crus-galli, ECHCG), poinsettia (Euphorbia heterophylla, EPHHL), ivyleaf morning-glory (Ipomoea hederacea, IPOHE), kochia (Kochia scoparia, KCHSC), wild buckwheat (Polygonum convolvulus, POLCO), grain sorghum (Sorghum vulgare, SORVU), chickweed (Stellaria media, STEME), wild pansy (Viola tricolor, VIOTR), was evaluated.
(§4) Weighed amounts of technical material were dissolved in a volume of 97:3 volume per volume (v/v) acetone/dimethyl sulfoxide (DMSO) to stock solutions. […] The concentrated stock solutions were diluted with an aqueous mixture of 1.5% v/v of Agri-dex crop oil concentrate to provide the appropriate application rates. Compound requirements are based upon a 12 milliliter (mL) application volume at a rate of 187 liters per hectare (L/ha).

[2] = system: common rice (Oryza sativa, ORYSA); test: Postemergence crop injury (phytotoxicity), greenhouse trial (visual injury 0-100%)
Method: as §1, §2, §3
(§5) Compound 1 was formulated as an EC and was combined with florasulam, cloransulam, diclosulam, flumetsulam, penoxsulam, or pyroxsulam. Compound 2 was formulated as an EC and was combined with florasulam or pyroxsulam. The mixtures were applied to winter wheat (TRZAW), common rice (ORYSA), maize (ZEAMX), and the phytotoxicity of the herbicidal compositions was measured. In addition, the efficacy of the herbicidal compositions on blackgrass (Alopecurus myosuroides, ALOMY), pigweed (Amaranthus retrollexus, AMARE), wild oat (Avena fatua, AVEFA), common lambsquarters (Chenopodium album L., CHEAL), thistle (Cirsium arvense CIRAR), nutsedge (Cyperus esculentus, CYPES), barnyardgrass (Echinochloa crus-galli, ECHCG), poinsettia (Euphorbia heterophylla, EPHHL), ivyleaf morning-glory (Ipomoea hederacea, IPOHE), kochia (Kochia scoparia, KCHSC), wild buckwheat (Polygonum convolvulus, POLCO), grain sorghum (Sorghum vulgare, SORVU), chickweed (Stellaria media, STEME), wild pansy (Viola tricolor, VIOTR), was evaluated.
as §4, with “(L/ha). […]” for “(L/ha).”

[3] = system: thistle (Cirsium arvense, CIRAR); test: Postemergence herbicidal activity, greenhouse trial (visual injury 0-100%); type: in vivo
Method: as §1, §2
as §3, with “mixtures. […]” for “mixtures.”
as §4

[4] = system: giant foxtail (Setaria faberi, SETFA); test: as above; type: in vivo
[5] = system: velvetleaf (Abutilon theophrasti, ABUTH); test: as above; type: in vivo; details: 15 g ai/ha
[6] = system: large crabgrass (Digitaria sanguinalis, DIGSA); test: as above; type: in vivo
[7] = system: ivyleaf morning-glory (Ipomoea hederacea, IPOHE); test: as above; type: in vivo
Method: as §1, §2, §3, §5
as §4, with “(L/ha). […]” for “(L/ha).”

[8] = system: chickweed (Stellaria media, STEME); test: as above; type: in vivo
Method: as §1, §2, §3, §5
as §4, with “(L/ha). […]” for “(L/ha).”

[9] = system: kochia (Kochia scoparia, KCHSC); test: as above; type: in vivo
Method: as §1, §2
as §3, with “mixtures. […]” for “mixtures.”
as §4

[10] = system: blackgrass (Alopecurus myosuroides, ALOMY); test: as above; type: in vivo; details: 280 g ai/ha
Method: as §1, §2, §3, §5
as §4, with “(L/ha). […]” for “(L/ha).”

[11] = system: nutsedge (Cyperus esculentus, CYPES); test: as above; type: in vivo; details: CYPES
Method: as §1
as §2, with “technical” for “technical or formulated”, “material” for “material (emulsifiable concentrate (EC) or soluble concentrate (SL))”
as §3, with “mixtures. […]” for “mixtures.”
as §2

[12] = system: barnyardgrass (Echinochloa crus-galli, ECHCG); test: as above; type: in vivo
Method: as §1, §2, §3, §5
as §4, with “(L/ha). […]” for “(L/ha).”

[13] = system: common lambsquarters (Chenopodium album L., CHEAL); test: as above; type: in vivo; details: Chenopodium album, post-emergence, CHEAL; chlorsulfuron 2.2 g ai/ha; read-out: % visual injury Obs
Method: as §1, §2, §3, §5
as §4, with “(L/ha). […]” for “(L/ha).”

[14] = system: spring rape (Brassica napus, BRSNN); test: as above; type: in vivo; details: BRSNN; chlorsulfuron 2.2 g ai/ha
[15] = system: winter wheat (Triticum aestivum, TRZAW); test: Postemergence crop injury (phytotoxicity), greenhouse trial (visual injury 0-100%); details: TRZAW
Method: as §1
as §2, with “technical” for “technical or formulated”, “material” for “material (emulsifiable concentrate (EC) or soluble concentrate (SL))”
as §3
Compound 2 was combined with florasulam and applied to winter wheat (TRZAW) and the phytotoxicity of the herbicidal composition was measured. In addition, the efficacy of the herbicidal composition on poinsettia (Euphorbia heterophylla, EPHHL) and […] (Cyperus esculentus, CYPES) was evaluated.
as §4, with “technical or formulated” for “technical”, “material (emulsifiable concentrate (EC) or soluble concentrate (SL))” for “material”, “(L/ha). Spray solutions of the experimental compound mixtures were prepared by adding the stock solutions to the appropriate amount of dilution solution to form a 12 mL spray solution in two-way combinations. […]” for “(L/ha).”

[16] = system: pigweed (Amaranthus retroflexus, AMARE); test: Postemergence herbicidal activity, greenhouse trial (visual injury 0-100%); type: in vivo; details: Amaranthus retroflexus, post-emergence, AMARE; orthosulfamuron 15 g ai/ha; read-out: % visual injury Obs
Method: as §1, §2
as §3, with “mixtures. […]” for “mixtures.”
as §4

[17] = system: maize (Zea mays, ZEAMX); test: Postemergence crop injury (phytotoxicity), greenhouse trial (visual injury 0-100%); details: ZEAMX; nicosulfuron 17.5 g ai/ha
Method: as §1, §2, §3, §5
as §4, with “(L/ha). […]” for “(L/ha).”

[18] = system: winter rape (Brassica napus, BRSNW); test: Postemergence herbicidal activity, greenhouse trial (visual injury 0-100%); type: in vivo; details: BRSNW; nicosulfuron 17.5 g ai/ha
[19] = system: wild oat (Avena fatua, AVEFA); test: as above; type: in vivo; details: 35 g ai/ha
Method: as §1, §2, §3, §5
as §4, with “(L/ha). […]” for “(L/ha).”

COc1cc(OC)nc(Oc2cccc(Oc3nc(OC)cc(OC)n3)c2C(=O)[O-])n1.[Na+] [Bispyribac-sodium]
% visual injury Obs ([1]; 10 g ai/ha): 80% | % visual injury Obs ([2]; 10 g ai/ha): 10% | % visual injury Obs ([3]; 10 g ai/ha): 95%

pyribenzoxim
% visual injury Obs ([4]; 15 g ai/ha): 70% | % visual injury Obs [5]: 10% | % visual injury Obs ([6]; 15 g ai/ha): 0% | % visual injury Obs ([7]; 15 g ai/ha): 70% | % visual injury Obs ([8]; 15 g ai/ha): 40% | % visual injury Obs ([2]; 15 g ai/ha): 0% | % visual injury Obs ([9]; 15 g ai/ha): 0%

CC(C)C1(C)N=C(c2ncccc2C(=O)O)NC1=O (centres unmarked) [Imazapyr, imazapyr]
% visual injury Obs ([6]; 280 g ai/ha): 95% | pest or weed control at 280 g/ha ([1]; Viola tricolor, post-emergence, 280 g ai/ha, read-out: % visual injury Obs): 80% | pest or weed control at 280 g/ha ([7]; Ipomoea hederacea, post-emergence, 280 g ai/ha, read-out: % visual injury Obs): 85% | % visual injury Obs [10]: 97%

COc1nc(C)nc(NC(=O)NS(=O)(=O)c2ccccc2Cl)n1 [Chlorsulfuron, chlorsulfuron]
pest or weed control ([1]; Viola tricolor, post-emergence, VIOTR, chlorsulfuron 2.2 g ai/ha, read-out: % visual injury Obs): 60% | pest or weed control ([11]; Cyperus, post-emergence, chlorsulfuron 2.2 g ai/ha, read-out: % visual injury Obs): 0% | pest or weed control ([12]; Echinochloa crus-galli, post-emergence, ECHCG, chlorsulfuron 2.2 g ai/ha, read-out: % visual injury Obs): 0% | pest or weed control [13]: 90% | pest or weed control ([9]; Bassia scoparia, post-emergence, KCHSC, chlorsulfuron 2.2 g ai/ha, read-out: % visual injury Obs): 50% | pest or weed control ([3]; Cirsium arvense, post-emergence, CIRAR, chlorsulfuron 2.2 g ai/ha, read-out: % visual injury Obs): 90% | % visual injury Obs [14]: 93%

COc1cc(OC)nc(NC(=O)NS(=O)(=O)Nc2ccccc2C(=O)N(C)C)n1 [Orthosulfamuron, orthosulfamuron]
% visual injury Obs ([15]; orthosulfamuron 15 g ai/ha): 0% | pest or weed control at 15 g/ha ([7]; Ipomoea hederacea, post-emergence, IPOHE, orthosulfamuron 15 g ai/ha, read-out: % visual injury Obs): 90% | % visual injury Obs ([2]; ORYSA, orthosulfamuron 15 g ai/ha): 0% | pest or weed control at 15 g/ha ([9]; Bassia scoparia, post-emergence, KCHSC, orthosulfamuron 15 g ai/ha, read-out: % visual injury Obs): 0% | pest or weed control at 15 g/ha [16]: 10%

COc1cc(OC)nc(NC(=O)NS(=O)(=O)c2ncccc2C(=O)N(C)C)n1 [Nicosulfuron, nicosulfuron]
% visual injury Obs ([4]; SETFA, nicosulfuron 17.5 g ai/ha): 80% | pest or weed control at 17.5 g/ha ([1]; Viola tricolor, post-emergence, VIOTR, nicosulfuron 17.5 g ai/ha, read-out: % visual injury Obs): 40% | pest or weed control at 17.5 g/ha ([7]; Ipomoea hederacea, post-emergence, IPOHE, nicosulfuron 17.5 g ai/ha, read-out: % visual injury Obs): 30% | pest or weed control at 17.5 g/ha ([8]; Stellaria media, post-emergence, STEME, nicosulfuron 17.5 g ai/ha, read-out: % visual injury Obs): 30% | % visual injury Obs [17]: 0% | % visual injury Obs [18]: 85% | pest or weed control at 17.5 g/ha ([9]; Bassia scoparia, post-emergence, KCHSC, nicosulfuron 17.5 g ai/ha, read-out: % visual injury Obs): 5%

metsulfuron
% visual injury Obs ([15]; metsulfuron 1.5 g ai/ha): 0% | % visual injury Obs ([11]; metsulfuron 1.5 g ai/ha): 50% | % visual injury Obs ([12]; ECHCG, metsulfuron 1.5 g ai/ha): 0% | % visual injury Obs ([2]; ORYSA, metsulfuron 1.5 g ai/ha): 20% | % visual injury Obs ([9]; KCHSC, metsulfuron 1.5 g ai/ha): 70% | % visual injury Obs ([3]; CIRAR, metsulfuron 1.5 g ai/ha): 90%

Cc1cnc(C2=NC(C)(C(C)C)C(=O)N2)c(C(=O)O)c1 (centres unmarked) [Imazapic, imazapic]
% visual injury Obs ([4]; 35 g ai/ha): 90% | pest or weed control at 35 g/ha ([1]; Viola tricolor, post-emergence, 35 g ai/ha, read-out: % visual injury Obs): 10% | pest or weed control at 35 g/ha ([7]; Ipomoea hederacea, post-emergence, 35 g ai/ha, read-out: % visual injury Obs): 75% | pest or weed control at 35 g/ha ([12]; Echinochloa crus-galli, post-emergence, 35 g ai/ha, read-out: % visual injury Obs): 93% | % visual injury Obs [19]: 95%
